Laboratory results reported in article PMC10892984, “Novel Antineoplastic Inducers of Mitochondrial Apoptosis in Human Cancer Cells” (Molecules, 2024).

How the values were obtained:
[1] = Storage stability of the solid substance (1H-NMR after storage); type: physicochemical; details: over six years at +0–4 °C in the refrigerator
Experimental: The specimen of compound 3, which was synthesized on Saturday, 27 May 2017, was investigated using proton NMR (Figure 13) on Wednesday, 23 August 2023, after over six years of storage at +0–4 °C in the refrigerator. The specimen was newly dried over CaCl2 in vacuo for 19 h. […]

[2] = test system: p21^Waf1/p21^Cip1, cyclin D1, Bax; assay: Expression of p53-regulated protein factors in cancer cells (data not shown); type: cell-based; details: mCRPC cells, multiple myeloma U266 cells, plasmacytoma RPMI-8226 cells

| SMILES | stability on storage (1H-NMR) [1] | cyclin D1 protein factor [2] | expression of cyclin-dependent kinase inhibitor p21^Waf1/p21^Cip1 [2] | pro-apoptotic factor Bax expression [2] |
| --- | --- | --- | --- | --- |
| COc1cc2c(c(OC)c1OC)-c1ccc(NNC(=S)N(Cc3cccc(C[N+](Cc4cccc(CNC56CC7CC(CC(C7)C5)C6)c4)(Cc4cccc(CNC56CC7CC(CC(C7)C5)C6)c4)Cc4cccc(CN(C(=S)NNc5ccc6c(cc5=O)C(NC(C)=O)CCc5cc(OC)c(OC)c(OC)c5-6)C56CC7CC(CC(C7)C5)C6)c4)c3)C34CC5CC(CC(C5)C3)C4)c(=O)cc1C(NC(C)=O)CC2 [Compound 3, [(bis{3-[(tricyclo[3.3.1.1^3,7]decan-1-ylamino)methyl]benzyl}ammonio)bis(methanediylbenzene-3,1-diylmethanediyl)]di-2-[(aS,7S)-7-(acetylamino)-1,2,3-trimethoxy-9-oxo-5,6,7,9-tetrahydrobenzo[a]heptalen-10-yl]-N-(tricyclo[3.3.1.1^3,7]decan-1-yl)hydrazinecarbothioamide chloride pentahydrate] | very pure even after six years storage | – | – | – |
| c1cc(CNC23CC4CC(CC(C4)C2)C3)cc(C[N+](Cc2cccc(CNC34CC5CC(CC(C5)C3)C4)c2)(Cc2cccc(CNC34CC5CC(CC(C5)C3)C4)c2)Cc2cccc(CNC34CC5CC(CC(C5)C3)C4)c2)c1 (stereo not shown) [Compound 1, tetrakis{3-[(tricyclo[3.3.1.1^3,7]decan-1-ammonio)methyl]benzyl}ammonium pentachloride] | – | downregulated | induced the expression | increased |
